Reference: ChEMBL document CHEMBL4177616, “Potent anti-melanogenic activity and favorable toxicity profile of selected 4-phenyl hydroxycoumarins in the zebrafish model and the computational molecular modeling studies” (Bioorg Med Chem, 2017)

Columns and labels:
[1] = species on record: Danio rerio; assay: Toxicity in wild type zebrafish embryos assessed as blood circulation at 50 ug/ml treated for 96 hrs post fertilization starting from 6 hrs post fertilization by inverted microscopic analysis relative to control; type: organism-based; details: in vivo
[2] = species on record: Danio rerio; assay: Toxicity in wild type zebrafish embryos assessed as blood circulation at 15 ug/ml treated for 96 hrs post fertilization starting from 6 hrs post fertilization by inverted microscopic analysis relative to control; type: organism-based; details: in vivo
[3] = Toxicity in wild type zebrafish embryos assessed as dead embryo at 2000 ug/ml treated for 96 hrs post fertilization starting from 6 hrs post fertilization by inverted microscopic analysis relative to control; type: organism-based, Danio rerio; details: in vivo, read-out: Activity
[4] = species on record: Danio rerio; assay: Toxicity in wild type zebrafish embryos assessed as otoliths at 100 ug/ml treated for 96 hrs post fertilization starting from 6 hrs post fertilization by inverted microscopic analysis relative to control; type: organism-based; details: in vivo
[5] = species on record: Danio rerio; assay: Toxicity in wild type zebrafish embryos assessed as normal embryo at 500 ug/ml treated for 96 hrs post fertilization starting from 6 hrs post fertilization by inverted microscopic analysis relative to control; type: organism-based; details: in vivo
[6] = species on record: Danio rerio; assay: Toxicity in wild type zebrafish embryos assessed as heart beat at 2000 ug/ml treated for 96 hrs post fertilization starting from 6 hrs post fertilization by inverted microscopic analysis relative to control; type: organism-based; details: in vivo
[7] = species on record: Danio rerio; assay: Toxicity in wild type zebrafish embryos assessed as teratogenic embryo at 1000 ug/ml treated for 96 hrs post fertilization starting from 6 hrs post fertilization by inverted microscopic analysis relative to control; type: organism-based; details: in vivo
[8] = species on record: Danio rerio; assay: Toxicity in wild type zebrafish embryos assessed as eyes at 2000 ug/ml treated for 96 hrs post fertilization starting from 6 hrs post fertilization by inverted microscopic analysis relative to control; type: organism-based; details: in vivo
[9] = species on record: Danio rerio; assay: Toxicity in wild type zebrafish embryos assessed as otoliths at 1000 ug/ml treated for 96 hrs post fertilization starting from 6 hrs post fertilization by inverted microscopic analysis relative to control; type: organism-based; details: in vivo
[10] = species on record: Danio rerio; assay: Toxicity in wild type zebrafish embryos assessed as teratogenic embryo at 2500 ug/ml treated for 96 hrs post fertilization starting from 6 hrs post fertilization by inverted microscopic analysis relative to control; type: organism-based; details: in vivo
[11] = species on record: Danio rerio; assay: Toxicity in wild type zebrafish embryos assessed as teratogenic embryo at 100 ug/ml treated for 96 hrs post fertilization starting from 6 hrs post fertilization by inverted microscopic analysis relative to control; type: organism-based; details: in vivo
[12] = test system: Danio rerio; assay: Toxicity in wild type zebrafish embryos assessed as yolk edema at 500 ug/ml treated for 96 hrs post fertilization starting from 6 hrs post fertilization by inverted microscopic analysis relative to control; type: organism-based; details: in vivo
[13] = species on record: Danio rerio; assay: Toxicity in wild type zebrafish embryos assessed as unhatched embryo at 2500 ug/ml treated for 96 hrs post fertilization starting from 6 hrs post fertilization by inverted microscopic analysis relative to control; type: organism-based; details: in vivo
[14] = species on record: Danio rerio; assay: Toxicity in wild type zebrafish embryos assessed as notochord at 2500 ug/ml treated for 96 hrs post fertilization starting from 6 hrs post fertilization by inverted microscopic analysis relative to control; type: organism-based; details: in vivo
[15] = species on record: Danio rerio; assay: Toxicity in wild type zebrafish embryos assessed as normal embryo at 2000 ug/ml treated for 96 hrs post fertilization starting from 6 hrs post fertilization by inverted microscopic analysis relative to control; type: organism-based; details: in vivo
[16] = species on record: Danio rerio; assay: Toxicity in wild type zebrafish embryos assessed as skeletal deformities at 2500 ug/ml treated for 96 hrs post fertilization starting from 6 hrs post fertilization by inverted microscopic analysis relative to control; type: organism-based; details: in vivo
[17] = Toxicity in wild type zebrafish embryos assessed as dead embryo at 1000 ug/ml treated for 96 hrs post fertilization starting from 6 hrs post fertilization by inverted microscopic analysis relative to control; type: organism-based, Danio rerio; details: in vivo, read-out: Activity
[18] = species on record: Danio rerio; assay: Toxicity in wild type zebrafish embryos assessed as unhatched embryo at 500 ug/ml treated for 96 hrs post fertilization starting from 6 hrs post fertilization by inverted microscopic analysis relative to control; type: organism-based; details: in vivo
[19] = species on record: Danio rerio; assay: Toxicity in wild type zebrafish embryos assessed as eyes at 500 ug/ml treated for 96 hrs post fertilization starting from 6 hrs post fertilization by inverted microscopic analysis relative to control; type: organism-based; details: in vivo
[20] = species on record: Danio rerio; assay: Toxicity in wild type zebrafish embryos assessed as growth retardation at 500 ug/ml treated for 96 hrs post fertilization starting from 6 hrs post fertilization by inverted microscopic analysis relative to control; type: organism-based; details: in vivo
[21] = species on record: Danio rerio; assay: Toxicity in wild type zebrafish embryos assessed as unhatched embryo at 100 ug/ml treated for 96 hrs post fertilization starting from 6 hrs post fertilization by inverted microscopic analysis relative to control; type: organism-based; details: in vivo
[22] = species on record: Danio rerio; assay: Toxicity in wild type zebrafish embryos assessed as head malformation at 2000 ug/ml treated for 96 hrs post fertilization starting from 6 hrs post fertilization by inverted microscopic analysis relative to control; type: organism-based; details: in vivo
[23] = species on record: Danio rerio; assay: Toxicity in wild type zebrafish embryos assessed as blood circulation at 2500 ug/ml treated for 96 hrs post fertilization starting from 6 hrs post fertilization by inverted microscopic analysis relative to control; type: organism-based; details: in vivo
[24] = species on record: Danio rerio; assay: Toxicity in wild type zebrafish embryos assessed as notochord at 2000 ug/ml treated for 96 hrs post fertilization starting from 6 hrs post fertilization by inverted microscopic analysis relative to control; type: organism-based; details: in vivo
[25] = species on record: Danio rerio; assay: Toxicity in wild type zebrafish embryos assessed as otoliths at 2500 ug/ml treated for 96 hrs post fertilization starting from 6 hrs post fertilization by inverted microscopic analysis relative to control; type: organism-based; details: in vivo
[26] = species on record: Danio rerio; assay: Toxicity in wild type zebrafish embryos assessed as otoliths at 2000 ug/ml treated for 96 hrs post fertilization starting from 6 hrs post fertilization by inverted microscopic analysis relative to control; type: organism-based; details: in vivo
[27] = species on record: Danio rerio; assay: Toxicity in wild type zebrafish embryos assessed as blood circulation at 500 ug/ml treated for 96 hrs post fertilization starting from 6 hrs post fertilization by inverted microscopic analysis relative to control; type: organism-based; details: in vivo
[28] = species on record: Danio rerio; assay: Toxicity in wild type zebrafish embryos assessed as skeletal deformities at 100 ug/ml treated for 96 hrs post fertilization starting from 6 hrs post fertilization by inverted microscopic analysis relative to control; type: organism-based; details: in vivo
[29] = species on record: Danio rerio; assay: Toxicity in wild type zebrafish embryos assessed as unhatched embryo at 1000 ug/ml treated for 96 hrs post fertilization starting from 6 hrs post fertilization by inverted microscopic analysis relative to control; type: organism-based; details: in vivo
[30] = species on record: Danio rerio; assay: Toxicity in wild type zebrafish embryos assessed as teratogenic embryo at 2000 ug/ml treated for 96 hrs post fertilization starting from 6 hrs post fertilization by inverted microscopic analysis relative to control; type: organism-based; details: in vivo
[31] = species on record: Danio rerio; assay: Toxicity in wild type zebrafish embryos assessed as heart beat at 2500 ug/ml treated for 96 hrs post fertilization starting from 6 hrs post fertilization by inverted microscopic analysis relative to control; type: organism-based; details: in vivo
[32] = species on record: Danio rerio; assay: Toxicity in wild type zebrafish embryos assessed as blood circulation at 2000 ug/ml treated for 96 hrs post fertilization starting from 6 hrs post fertilization by inverted microscopic analysis relative to control; type: organism-based; details: in vivo
[33] = species on record: Danio rerio; assay: Toxicity in wild type zebrafish embryos assessed as blood circulation at 100 ug/ml treated for 96 hrs post fertilization starting from 6 hrs post fertilization by inverted microscopic analysis relative to control; type: organism-based; details: in vivo
[34] = species on record: Danio rerio; assay: Toxicity in wild type zebrafish embryos assessed as head malformation at 1000 ug/ml treated for 96 hrs post fertilization starting from 6 hrs post fertilization by inverted microscopic analysis relative to control; type: organism-based; details: in vivo
[35] = test system: Danio rerio; assay: Toxicity in wild type zebrafish embryos assessed as yolk edema at 2500 ug/ml treated for 96 hrs post fertilization starting from 6 hrs post fertilization by inverted microscopic analysis relative to control; type: organism-based; details: in vivo
[36] = in vivo; details: zebrafish
Description: Toxicity in wild type zebrafish embryos assessed as dead embryo at 12.5 ug/ml treated for 96 hrs post fertilization starting from 6 hrs post fertilization by inverted microscopic analysis relative to control

[37] = in vivo; details: zebrafish; remark: listed apart in the source
Description: Toxicity in wild type zebrafish embryos assessed as dead embryo at 6.25 ug/ml treated for 96 hrs post fertilization starting from 6 hrs post fertilization by inverted microscopic analysis relative to control

O=c1cc(-c2ccccc2)c2ccc(O)cc2o1
Activity [1]: 0% | Activity [2]: 0%

O=c1cc(-c2ccccc2)c2c(O)cc(O)cc2o1
Activity [1]: 0% | Activity [2]: 0%

O=c1cc(CO)occ1O [KOJIC ACID]
mortality at 2000 ug/ml [3]: 0% | Activity [4]: 0% | Activity [5]: 13.33% | Activity [6]: 96.67% | Activity [7]: 98.33% | Activity [8]: 0% | Activity [9]: 0% | Activity [10]: 100% | Activity [11]: 35% | Activity [12]: 0% | Activity [13]: 0% | Activity [14]: 0% | Activity [15]: 0% | Activity [16]: 98.33% | mortality at 1000 ug/ml [17]: 0% | Activity [18]: 0% | Activity [19]: 0% | Activity [20]: 0% | Activity [21]: 0% | Activity [22]: 78.33% | Activity [23]: 10% | Activity [24]: 0% | Activity [25]: 86.67% | Activity [26]: 31.67% | Activity [27]: 0% | Activity [28]: 0% | Activity [29]: 0% | Activity [30]: 100% | Activity [31]: 100% | Activity [32]: 6.67% | Activity [33]: 0% | Activity [34]: 0% | Activity [35]: 5%

Oc1ccc(O)cc1 [HYDROQUINONE]
mortality at 12.5 ug/ml [36]: 66.7% | mortality at 6.25 ug/ml [37]: 0%
